Tested on: NRF2
Assay: Western Blot validation of NRF2 nuclear accumulation and extra-nuclear protein phosphorylation
Type: cell-based, human
Conditions: HMVEC-L
Experimental: 8. A Western Blot analysis was done on extra-nuclear and intra-nuclear fractions, separated by differential centrifugation, of serum starved HMVEC-L cell cultures exposed to <1% of a composition of the invention compared with a positive hydrogen peroxide control to determine phosphorylation events (oxidant action) in the extra-nuclear fraction and NRF2 (antioxidant transcription) in the intra-nuclear fraction at 0, 30, 60, 90 and 120 min intervals.
Experimental Methods for Western Blot Validation of NRF2 Nuclear Accumulation: HMVEC-L were treated with 1% of a composition of the invention, nuclear extracts were separated through centrifugal differentiation from the extra-nuclear cytosol at 30, 60 and 120 min and subjected to Western Blot analysis for NRF2. In the Western blot experiment the extra-nuclear fraction was probed for phosphorylated proteins using a combination of anti-phospho serine, threonine and tyrosine antibodies. Virtually all cellular processes are regulated by posttranslational modifications and protein phosphorylation is a prevalent mechanism. […]

For `OO` [H2O2, Hydrogen peroxide], the “nuclear NRF2 levels” value (H2O2 positive control, 30 min) was “did not increase nuclear NRF2 levels” and the “phosphorylation of extra-nuclear protein” value (H2O2 treatment) was “marked increase in the phosphorylation”.
